# From patent US11839641B2, “Methods and compositions for treatment of lysosomal storage disorders” (JME Group Associates Inc., priority 2020, dated 2023)
# What was measured:
# [1] = molecular target: T1, Barley GAA (high-isoelectric-point (pI) α-glucosidase) (Hordeum vulgare, UniProt Q43763); conditions: cited from earlier work
# T1 sequence (Q43763 24-877): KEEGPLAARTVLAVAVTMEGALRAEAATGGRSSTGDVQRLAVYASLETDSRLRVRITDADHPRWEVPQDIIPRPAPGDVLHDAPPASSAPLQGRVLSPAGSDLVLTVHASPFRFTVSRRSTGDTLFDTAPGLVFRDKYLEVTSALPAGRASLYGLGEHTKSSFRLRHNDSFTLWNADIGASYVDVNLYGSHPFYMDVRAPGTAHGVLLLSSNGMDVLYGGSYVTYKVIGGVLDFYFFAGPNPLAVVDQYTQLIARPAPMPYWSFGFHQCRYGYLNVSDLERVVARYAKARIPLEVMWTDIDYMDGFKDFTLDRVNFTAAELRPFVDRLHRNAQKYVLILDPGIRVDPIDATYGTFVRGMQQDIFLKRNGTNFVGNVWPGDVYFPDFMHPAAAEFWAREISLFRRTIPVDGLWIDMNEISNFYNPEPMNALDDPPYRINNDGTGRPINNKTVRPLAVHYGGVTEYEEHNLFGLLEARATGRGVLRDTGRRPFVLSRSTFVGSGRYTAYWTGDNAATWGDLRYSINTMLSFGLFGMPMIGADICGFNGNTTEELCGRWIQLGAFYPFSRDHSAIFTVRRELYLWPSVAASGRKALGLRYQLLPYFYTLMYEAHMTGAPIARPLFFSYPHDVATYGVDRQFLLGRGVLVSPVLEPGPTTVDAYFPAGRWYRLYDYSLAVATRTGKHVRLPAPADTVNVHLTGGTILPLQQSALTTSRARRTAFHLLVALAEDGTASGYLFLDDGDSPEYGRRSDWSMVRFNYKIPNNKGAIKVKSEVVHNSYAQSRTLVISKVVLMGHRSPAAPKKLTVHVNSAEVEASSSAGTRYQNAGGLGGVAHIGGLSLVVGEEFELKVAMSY
# [2] = system: GAA KO mice; conditions: cited from earlier work
# [3] = system: human white blood cells; assay: Uptake of GGB crude lysate by human white blood cells; format: cell-based; conditions: 18 hrs at 37° C.
# Experimental: (§1) Uptake of a crude lysate of 7-8 day GGB by white blood cells (“WBC”) from humans and GAA KO mice was tested. Each treatment was performed±5 mM mannose-6 phosphate. Mannose-6 phosphate treatment blocks uptake by the M-6-P receptor (Martiniuk et al., “Further Studies of The Structure of Human Placental Acid Alpha-Glucosidase,” Arch Biochem Biophys 231:454-460 (1984); Martiniuk et al., “Production of a Functional Human Acid Maltase in Tobacco Seeds: Biochemical Analysis, Uptake by Human GSDII Cells, and in vivo Studies in GAA Knockout Mice,” Appl Biochem Biotechnol 171:916-926 (2013), each of which is hereby incorporated by reference in their entirety). Human placental GAA (hGAA) was used as a positive control. Anti-coagulate-EDTA was added at 1.5 to 2.0 mg/ml of whole blood. 0.15 ml of human and mouse KO blood was used and a 14×RBC lysing solution (NH4Cl (ammonium chloride)—8.02 g; NaHCO3 (sodium bicarbonate)—0.84 g; EDTA (disodium)—0.37 g to 100 ml with water) was added in a 1.5 ml microfuge tube, inverted for 10 minutes at RT until the liquid was clear red followed by spinning for 1 minute in a microfuge. The supernatant was decanted, cells were washed with phosphate buffered saline (PBS) and re-suspend in 2.4 ml complete DMEM-10% FBS (Life Technologies). […]
# [4] = system: GAA KO mice white blood cells; assay: Uptake of GGB crude lysate by GAA KO mouse white blood cells ± mannose-6-phosphate; format: cell-based; conditions: 5 mM mannose-6-phosphate
# Experimental: as §1
compound,measurement,setting,value
C[C@H]1O[C@H](O[C@H]2[C@H](O)[C@@H](O)[C@@H](O[C@H]3[C@H](O)[C@@H](O)C(O)O[C@@H]3CO)O[C@@H]2CO)[C@H](O)[C@@H](O)[C@@H]1N[C@H]1C=C(CO)[C@@H](O)[C@H](O)[C@H]1O (stereo partly drawn) [Acarbose],Ki,[1],1.5 µM
rhGAA: recombinant human GAA,Glycogen reduction,"[2]; 20 mg/kg/wk for 5 mo., skeletal muscle",< 50%
same,enzyme uptake by skeletal muscle compared to liver and heart,[2]; 20 mg/kg/wk for 5 mo.,minimal
same,glycogen clearance in skeletal muscle,[2]; 100 mg/kg/wk,~75%
placental hGAA: Human placental GAA (hGAA) used as a positive control,GAA/NAG ratio compared to mock treated cells,[3],higher ratios of GAA/NAG
same,uptake with mannose-6-phosphate,[4],blocked
